{"source": "patent US20230133630A1", "about": "“Oral Care Compositions Comprising Dicarboxylic Acid” (The Procter & Gamble Company, priority 2021, published 2023)", "assay_type_in_all_cases": "cell-based", "key": {"[1]": {"system": "human gingival keratinocytes (Gie-No3-B11), P. gingivalis OMV", "experiment": "Infection of human gingival keratinocytes by fluorescence-label P. gingivalis outer membrane vesicles (OMV)", "conditions": "for inhibition at 100000 µM: concentration 100 mM", "protocol": "(§1) One method to assess the potential of dicarboxylic acids to reduce gum disease and improve health was to assess the infection potential of gingival keratinocytes. In this model, human gingival keratinocytes (Gie-No3-B11, purchased from Creative Bioarray, Shirley, N.Y.) were maintained in a 37° C. incubator with 5% CO2. Cells were seeded in 100 μL cell suspension to each well (2K cells/well). Cells were treated 24 hours after seeding. Growth medium alone or growth medium with solvent vehicle was used as a negative control. Positive controls are either fluorescent E. coli LPS, or fluorescent S. minnesota LPS (https://corporate.thermofisher.com/us/en/index.html), fluorescence-label P. gingivalis outer membrane vesicles (OMV) with or without medium or solvent vehicle. P. gingivalis OMV was isolated following procedures described by Cecil et al. 2016 (Jessica D. Cecil, Neil M. O'Brien-Simpson, Jason C. Lenzo, James A. Holden, Yu-Yen Chen, William Singleton, Katelyn Gause, Yan Yan, Frank Caruso, and Eric C. Reynolds. Differential Responses of Pattern Recognition Receptors to Outer Membrane Vesicles of Three Periodontal Pathogens. iPLoS One. 2016; 11(4): e0151967). The OMV was stained with Lipophilic Tracer DiO following manufacturer's instruction (https://corporate.thermofisher.com/us/en/index.html). Compounds were dissolved in water and diluted in culture medium (all dilutions are deep yellow, or very acidic). All compounds and fluorescent LPS or OMV were added to cells at the same time. It is worth mentioning that cell culture medium changed immediately following adding the compounds from pink (pH7-7.4) to deep yellow (acidic). Images were taken in four sites in each well at a 3-hour interval over 48 to 120 hours in Incucyte® Live-Cell Analysis Systems (https://www.sartorius.com/en/products/live-cell-imaging-analysis/live-cell-analysis-instruments#id-789214). Data were processed and analyzed using R-programs."}, "[2]": {"system": "human gingival keratinocytes (Gie-No3-B11), E. coli LPS", "experiment": "Infection of human gingival keratinocytes by fluorescent E. coli LPS", "protocol": "as §1"}, "[3]": {"system": "human gingival keratinocytes (Gie-No3-B11), S. minnesota LPS", "experiment": "Infection of human gingival keratinocytes by fluorescent S. minnesota LPS", "protocol": "as §1"}, "[4]": {"conditions": "Homo sapiens, Keratinocyte, concentration 11.11 mM"}, "[5]": {"conditions": "Homo sapiens, Keratinocyte, concentration 5 mM"}, "[6]": {"conditions": "Homo sapiens, Keratinocyte, concentration 7.5 mM"}, "[7]": {"conditions": "Homo sapiens, Keratinocyte, concentration 125 μM"}}}
{"smiles": "O=C(O)CC(O)C(=O)O", "note": "(stereo not drawn) [DL_Maleic_acid]", "values": [{"measurement": "Inhibition %", "setting": "[1]; concentration 11.11 mM", "value": 62.2, "unit": "%"}, {"measurement": "Inhibition %", "setting": "[2]; concentration 5 mM", "value": 36.3, "unit": "%"}, {"measurement": "Inhibition %", "setting": "[3]; concentration 7.5 mM", "value": 59.9, "unit": "%"}]}
{"smiles": "O=C(O)C(O)C(O)C(=O)O", "note": "(stereo not drawn) [DL_Tartaric_acid, DL tartaric acid]", "values": [{"measurement": "Inhibition %", "setting": "[1]; concentration 1 mM", "value": 57.7, "unit": "%"}, {"measurement": "Inhibition %", "setting": "[3]; concentration 1 mM", "value": 26.4, "unit": "%"}]}
{"smiles": "CC(C)(C(=O)O)C(=O)O", "note": "[Dimethylmalonic_Acid, dimethylmalonic acid]", "values": [{"measurement": "inhibition at 11110 µM", "setting": "[1]; [4]", "value": 81.3, "unit": "%"}, {"measurement": "inhibition at 5000 µM", "setting": "[2]; [5]", "value": 33.8, "unit": "%"}, {"measurement": "inhibition at 7500 µM", "setting": "[3]; [6]", "value": 54.5, "unit": "%"}]}
{"smiles": "O=C(O)/C=C/C(=O)O", "note": "[Fumaric_acid, fumaric acid]", "values": [{"measurement": "inhibition at 33330 µM", "setting": "[1]; Homo sapiens, Keratinocyte, concentration 33.33 mM", "value": 53.1, "unit": "%"}, {"measurement": "inhibition at 7500 µM", "setting": "[2]; [6]", "value": 31, "unit": "%"}, {"measurement": "inhibition at 7500 µM", "setting": "[3]; [6]", "value": 71.9, "unit": "%"}]}
{"smiles": "O=C(O)[C@H](O)[C@@H](O)C(=O)O", "note": "[L_+_Tartaric_acid, L-tartaric acid]", "values": [{"measurement": "Inhibition %", "setting": "[1]; concentration 2.5 mM", "value": 73.6, "unit": "%"}, {"measurement": "Inhibition %", "setting": "[3]; concentration 10 mM", "value": 52.1, "unit": "%"}]}
{"smiles": "O=C(O)/C=C\\C(=O)O", "note": "[Maleic_acid, maleic acid]", "values": [{"measurement": "inhibition at 100000 µM", "setting": "[1]; Homo sapiens, Keratinocyte", "value": 83.3, "unit": "%"}, {"measurement": "inhibition at 5000 µM", "setting": "[2]; [5]", "value": 63.8, "unit": "%"}, {"measurement": "inhibition at 3000 µM", "setting": "[3]; Homo sapiens, Keratinocyte, concentration 3 mM", "value": 73.8, "unit": "%"}]}
{"smiles": "O=C(O)CC(=O)O", "note": "[Malonic_acid, malonic acid]", "values": [{"measurement": "inhibition at 11110 µM", "setting": "[1]; [4]", "value": 69.3, "unit": "%"}, {"measurement": "inhibition at 5000 µM", "setting": "[2]; [5]", "value": 35.9, "unit": "%"}]}
{"smiles": "CC(C(=O)O)C(=O)O", "note": "[Methyl_malonic_acid, methylmalonic acid]", "values": [{"measurement": "inhibition at 11110 µM", "setting": "[1]; [4]", "value": 63.6, "unit": "%"}, {"measurement": "inhibition at 5000 µM", "setting": "[2]; [5]", "value": 30.7, "unit": "%"}, {"measurement": "inhibition at 2500 µM", "setting": "[3]; Homo sapiens, Keratinocyte, concentration 2.5 mM", "value": 28.7, "unit": "%"}]}
{"smiles": "O=C(O)C(=O)O", "note": "[Oxalic_acid, oxalic acid]", "values": [{"measurement": "inhibition at 100000 µM", "setting": "[1]; Homo sapiens, Keratinocyte", "value": 32.8, "unit": "%"}, {"measurement": "inhibition at 125 µM", "setting": "[2]; [7]", "value": 38.2, "unit": "%"}, {"measurement": "inhibition at 125 µM", "setting": "[3]; [7]", "value": 22.5, "unit": "%"}]}
{"smiles": "O.O=C([O-])C(=O)[O-].[K+].[K+]", "note": "[Potassium_oxalate_monohydrate, Potassium Oxalate Monohydrate]", "values": [{"measurement": "Inhibition %", "setting": "[2]; concentration 125 μM", "value": 21.5, "unit": "%"}, {"measurement": "Inhibition %", "setting": "[3]; concentration 125 μM", "value": 41.5, "unit": "%"}]}
{"smiles": "O=C(O)C(=O)C(=O)O", "note": "[Sodium_mesoxalate_monohydrate, Sodium Mesoxalate Monohydrate]", "values": [{"measurement": "inhibition at 5000 µM", "setting": "[1]; [5]", "value": 44.3, "unit": "%"}]}
{"smiles": "O=C(O)CCC(=O)O", "note": "[Succinic_acid, succinic acid]", "values": [{"measurement": "inhibition at 2000 µM", "setting": "[1]; Homo sapiens, Keratinocyte, concentration 2 mM", "value": 73, "unit": "%"}, {"measurement": "inhibition at 1000 µM", "setting": "[3]; Homo sapiens, Keratinocyte, concentration 1 mM", "value": 42.3, "unit": "%"}]}
